Measurements from patent publication US20260053834A1, “COVALENT MODIFIERS OF AKT1 AND USES THEREOF” (Terremoto Biosciences, Inc., priority 2023, published 2026).
pIC50: −log10 of the molar value.

Assays:
AKT1 WT = biological target: T1, AKT1 WT (Homo sapiens, UniProt P31749); experiment: Live cell target engagement by NanoBRET competitive probe displacement, AKT1 WT; assay type: binding; conditions: transfected HEK293 cells, 2 h at 37° C., read-out: AKT1 WT IC50: GeoMean IC50
T1 construct: expressed in transfected cells; host or cells: HEK293
T1 sequence (P31749 whole entry): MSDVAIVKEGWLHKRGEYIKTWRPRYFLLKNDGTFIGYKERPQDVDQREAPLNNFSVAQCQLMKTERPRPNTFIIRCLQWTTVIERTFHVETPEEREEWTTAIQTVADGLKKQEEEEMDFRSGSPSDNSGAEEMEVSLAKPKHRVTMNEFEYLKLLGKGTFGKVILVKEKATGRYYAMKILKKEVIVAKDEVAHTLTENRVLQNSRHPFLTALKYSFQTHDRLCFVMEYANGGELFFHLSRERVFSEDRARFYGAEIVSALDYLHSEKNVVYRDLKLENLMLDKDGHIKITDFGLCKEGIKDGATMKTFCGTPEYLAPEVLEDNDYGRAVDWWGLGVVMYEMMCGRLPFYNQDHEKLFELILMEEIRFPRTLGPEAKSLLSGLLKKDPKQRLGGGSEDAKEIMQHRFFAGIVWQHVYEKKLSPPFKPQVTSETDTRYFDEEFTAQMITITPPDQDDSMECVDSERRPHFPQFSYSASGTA

[1] = system: LAPC4 prostate cancer cells, which express the AKT1 E17K allele; experiment: Antiproliferative effects in LAPC4 cells (CellTiter Glo, 72 h); assay type: cell-based; conditions: Homo sapiens, LAPC4, 72 h, read-out: LAPC4 proliferation IC50: GeoMean IC50
How it was run: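 IC50 values come from Hill-equation fitting of luminescence (cellular ATP) after 72 h compound exposure. Treated wells held 1,000 cells each, with compound delivered as DMSO dilutions. Culture medium was IMDM plus 12% FBS.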

AKT1 E17K = biological target: T2, AKT1 E17K (Homo sapiens, UniProt P31749, E17K); experiment: Live cell target engagement by NanoBRET competitive probe displacement, AKT1 E17K; assay type: binding; conditions: transfected HEK293 cells, 2 h at 37° C., read-out: AKT1 E17K IC50: GeoMean IC50
T2 construct: expressed in transfected cells; host or cells: HEK293
T2 sequence (P31749 whole entry E17K): as the sequence (P31749 whole entry) above, with E17K counted along it

AKT2 = biological target: T3, AKT2 (Homo sapiens, UniProt P31751); experiment: Live cell target engagement by NanoBRET competitive probe displacement, AKT2; assay type: binding; conditions: transfected HEK293 cells, 2 h at 37° C., read-out: AKT2 IC50: GeoMean IC50
T3 construct: expressed in transfected cells; host or cells: HEK293
T3 sequence (P31751 whole entry): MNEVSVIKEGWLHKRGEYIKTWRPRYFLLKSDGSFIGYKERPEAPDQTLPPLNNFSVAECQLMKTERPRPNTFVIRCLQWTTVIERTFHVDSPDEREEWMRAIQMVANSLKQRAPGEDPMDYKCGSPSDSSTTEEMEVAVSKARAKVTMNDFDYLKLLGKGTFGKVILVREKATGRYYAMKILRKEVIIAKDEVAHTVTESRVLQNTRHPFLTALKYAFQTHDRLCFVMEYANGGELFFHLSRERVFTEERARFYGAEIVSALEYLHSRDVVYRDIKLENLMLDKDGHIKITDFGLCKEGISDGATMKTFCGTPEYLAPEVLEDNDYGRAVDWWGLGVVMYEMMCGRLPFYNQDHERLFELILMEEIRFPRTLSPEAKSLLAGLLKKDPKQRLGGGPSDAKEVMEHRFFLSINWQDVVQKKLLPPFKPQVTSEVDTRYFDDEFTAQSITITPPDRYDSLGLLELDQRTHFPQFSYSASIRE

SMILES	pIC50 (AKT1 WT)	pIC50 [1]	pIC50 (AKT1 E17K)	pIC50 (AKT2)
Nc1ncccc1-c1nc2ccc(NC3CC3)nc2n1-c1ccc2c(c1)CC[C@@H]2NC(=O)c1ccc(O)c(C=O)c1 [Example 87, (S)—N-(5-(2-(2-aminopyridin-3-yl)-5-(cyclopropylamino)-3H-imidazo[4,5-b]pyridin-3-yl)-2,3-dihydro-1H-inden-1-yl)-3-formyl-4-hydroxybenzamide]	5.70 to 7.00	5.70 to 7.00	7.00 to 8.00	≤ 5.70
Nc1ncccc1-c1nc2ccc(-n3ccc(-n4cccn4)n3)nc2n1-c1ccc2c(c1)CC[C@@H]2NC(=O)c1ccc(O)c(C=O)c1 [Example 117, (S)—N-(5-(5-(1′H-[1,3′-bipyrazol]-1′-yl)-2-(2-aminopyridin-3-yl)-3H-imidazo[4,5-b]pyridin-3-yl)-2,3-dihydro-1H-inden-1-yl)-3-formyl-4-hydroxybenzamide]	7.00 to 8.00	7.00 to 8.00	7.00 to 8.00	5.70 to 7.00
Cc1ccn(-c2ccc3nc(-c4cccnc4N)n(-c4ccc5c(c4)CC[C@@H]5NC(=O)c4ccc(O)c(C=O)c4)c3n2)n1 [Example 95, N-[(1S)-5-[2-(2-aminopyridin-3-yl)-5-(3-methylpyrazol-1-yl)imidazo[4,5-b]pyridin-3-yl]-2,3-dihydro-1H-inden-1-yl]-3-formyl-4-hydroxybenzamide]	7.00 to 8.00	7.00 to 8.00	7.00 to 8.00	5.70 to 7.00
C#Cc1ccn(-c2ccc3nc(-c4cccnc4N)n(-c4ccc5c(c4)CC[C@@H]5NC(=O)c4ccc(O)c(C=O)c4)c3n2)n1 [Example 119, N-[(1S)-5-[2-(2-aminopyridin-3-yl)-5-(3-ethynylpyrazol-1-yl)imidazo[4,5-b]pyridin-3-yl]-2,3-dihydro-1H-inden-1-yl]-3-formyl-4-hydroxybenzamide]	7.00 to 8.00	7.00 to 8.00	> 8.00	5.70 to 7.00
Nc1ncccc1-c1nc2ccc(-n3cccn3)nc2n1-c1ccc2c(c1)CC[C@@H]2n1cnc2cc(O)c(C=O)cc2c1=O [Example 184, 3-[(1S)-5-[2-(2-aminopyridin-3-yl)-5-(pyrazol-1-yl)imidazo[4,5-b]pyridin-3-yl]-2,3-dihydro-1H-inden-1-yl]-7-hydroxy-4-oxoquinazoline-6-carbaldehyde]	7.00 to 8.00	7.00 to 8.00	7.00 to 8.00	5.70 to 7.00
Nc1ncccc1-c1nc2ccc(-n3cc4c(n3)COC4)nc2n1-c1ccc2c(c1)CC[C@@H]2NC(=O)c1ccc(O)c(C=O)c1 [Example 207, N-[(1S)-5-[2-(2-aminopyridin-3-yl)-5-{4H,6H-furo[3,4-c]pyrazol-2-yl}imidazo[4,5-b]pyridin-3-yl]-2,3-dihydro-1H-inden-1-yl]-3-formyl-4-hydroxybenzamide]	7.00 to 8.00	5.70 to 7.00	7.00 to 8.00	5.70 to 7.00
CS(=O)(=O)Nc1cc(F)c(C(=O)N[C@H]2CCc3cc(-n4c(-c5cccnc5N)nc5ccc(-n6cccn6)nc54)ccc32)cc1C=O [Example 217, N-[(1S)-5-[2-(2-aminopyridin-3-yl)-5-(pyrazol-1-yl)imidazo[4,5-b]pyridin-3-yl]-2,3-dihydro-1H-inden-1-yl]-2-fluoro-5-formyl-4-methanesulfonamidobenzamide]	≤ 5.70	≤ 5.70	≤ 5.70	≤ 5.70
Cc1nnc(-c2ccc3nc(-c4cccnc4N)n(-c4ccc5c(c4)CC[C@@H]5NC(=O)c4ccc(O)c(C=O)c4)c3n2)s1 [Example 203, N-[(1S)-5-[2-(2-aminopyridin-3-yl)-5-(5-methyl-1,3,4-thiadiazol-2-yl)imidazo[4,5-b]pyridin-3-yl]-2,3-dihydro-1H-inden-1-yl]-3-formyl-4-hydroxybenzamide]	7.00 to 8.00	5.70 to 7.00	7.00 to 8.00	5.70 to 7.00
Cc1cc(O)c(C=O)cc1C(=O)N[C@H]1CCc2cc(-n3c(-c4cccnc4N)nc4ccc(-n5cccn5)nc43)ccc21 [Example 149, N-[(1S)-5-[2-(2-aminopyridin-3-yl)-5-(pyrazol-1-yl)imidazo[4,5-b]pyridin-3-yl]-2,3-dihydro-1H-inden-1-yl]-5-formyl-4-hydroxy-2-methylbenzamide]	5.70 to 7.00	5.70 to 7.00	7.00 to 8.00	5.70 to 7.00
CN1CC(n2ccc(-c3ccc4nc(-c5cccnc5N)n(-c5ccc6c(c5)CC[C@@H]6NC(=O)c5ccc(O)c(C=O)c5)c4n3)n2)C1 [Example 165, (S)—N-(5-(2-(2-aminopyridin-3-yl)-5-(1-(1-methylazetidin-3-yl)-1H-pyrazol-3-yl)-3H-imidazo[4,5-b]pyridin-3-yl)-2,3-dihydro-1H-inden-1-yl)-3-formyl-4-hydroxybenzamide]	7.00 to 8.00	5.70 to 7.00	7.00 to 8.00	5.70 to 7.00

Now from value to compound:

pIC50 (AKT1 WT)	pIC50 [1]	pIC50 (AKT1 E17K)	pIC50 (AKT2)	SMILES
7.00 to 8.00	7.00 to 8.00	> 8.00	5.70 to 7.00	Cn1ccc(-c2ccc3nc(-c4cccnc4N)n(-c4ccc5c(c4)CC[C@@H]5NC(=O)c4cc(C=O)c(O)cc4F)c3n2)n1 [Example 241, N-[(1S)-5-[2-(2-aminopyridin-3-yl)-5-(1-methylpyrazol-3-yl)imidazo[4,5-b]pyridin-3-yl]-2,3-dihydro-1H-inden-1-yl]-2-fluoro-5-formyl-4-hydroxybenzamide]
7.00 to 8.00	7.00 to 8.00	> 8.00	5.70 to 7.00	Nc1ncccc1-c1nc2c(C(F)F)cc(-n3cccn3)nc2n1-c1ccc2c(c1)CC[C@@H]2NC(=O)c1ccc(O)c(C=O)c1 [Example 245, N-[(1S)-5-[2-(2-aminopyridin-3-yl)-7-(difluoromethyl)-5-(pyrazol-1-yl)imidazo[4,5-b]pyridin-3-yl]-2,3-dihydro-1H-inden-1-yl]-3-formyl-4-hydroxybenzamide]
7.00 to 8.00	7.00 to 8.00	7.00 to 8.00	5.70 to 7.00	Nc1ncccc1-c1nc2ccc(-c3nc(C(F)F)cs3)nc2n1-c1ccc2c(c1)CC[C@@H]2NC(=O)c1ccc(O)c(C=O)c1 [Example 147, N-[(1S)-5-[2-(2-aminopyridin-3-yl)-5-[4-(difluoromethyl)-1,3-thiazol-2-yl]imidazo[4,5-b]pyridin-3-yl]-2,3-dihydro-1H-inden-1-yl]-3-formyl-4-hydroxybenzamide]
7.00 to 8.00	5.70 to 7.00	7.00 to 8.00	5.70 to 7.00	Nc1ncccc1-c1nc2ccc(-n3cccn3)nc2n1-c1ccc2c(c1)CC[C@@H]2NC(=O)c1cc(C=O)c(O)cc1O [Example 159, (S)—N-(5-(2-(2-aminopyridin-3-yl)-5-(1H-pyrazol-1-yl)-3H-imidazo[4,5-b]pyridin-3-yl)-2,3-dihydro-1H-inden-1-yl)-5-formyl-2,4-dihydroxybenzamide]
7.00 to 8.00	7.00 to 8.00	7.00 to 8.00	5.70 to 7.00	N#Cc1cc(-n2cccn2)nc2c1nc(-c1cccnc1N)n2-c1ccc2c(c1)CC[C@@H]2NC(=O)c1ccc(O)c(C=O)c1 [Example 209, N-[(1S)-5-[2-(2-aminopyridin-3-yl)-7-cyano-5-(pyrazol-1-yl)imidazo[4,5-b]pyridin-3-yl]-2,3-dihydro-1H-inden-1-yl]-3-formyl-4-hydroxybenzamide]
7.00 to 8.00	7.00 to 8.00	> 8.00	5.70 to 7.00	Cn1ncc(-c2ccc3nc(-c4cccnc4N)n(-c4ccc5c(c4)CC[C@@H]5NC(=O)c4ccc(O)c(C=O)c4)c3n2)n1 [Example 120, N-[(1S)-5-[2-(2-aminopyridin-3-yl)-5-(2-methyl-1,2,3-triazol-4-yl)imidazo[4,5-b]pyridin-3-yl]-2,3-dihydro-1H-inden-1-yl]-3-formyl-4-hydroxybenzamide]
7.00 to 8.00	7.00 to 8.00	7.00 to 8.00	7.00 to 8.00	Nc1ncccc1-c1nc2ccc(-c3ccccc3F)nc2n1-c1ccc2c(c1)CC[C@@H]2NC(=O)c1ccc(O)c(C=O)c1 [Example 21, N-[(1S)-5-[2-(2-aminopyridin-3-yl)-5-(2-fluorophenyl)imidazo[4,5-b]pyridin-3-yl]-2,3-dihydro-1H-inden-1-yl]-3-formyl-4-hydroxybenzamide]
5.70 to 7.00	5.70 to 7.00	5.70 to 7.00	5.70 to 7.00	Nc1ncccc1-c1nc2ccc(-n3cccn3)nc2n1-c1ccc2c(c1)[C@@H](O)C[C@@H]2NC(=O)c1ccc(O)c(C=O)c1 (single isomer, unassigned) [Example 99]
5.70 to 7.00	5.70 to 7.00	5.70 to 7.00	≤ 5.70	Cc1ccc2nc(-c3cccnc3N)n(-c3ccc4c(c3)CC[C@@H]4NC(=O)c3cc(F)c(O)c(C=O)c3)c2n1 [Example 44, (S)—N-(5-(2-(2-aminopyridin-3-yl)-5-methyl-3H-imidazo[4,5-b]pyridin-3-yl)-2,3-dihydro-1H-inden-1-yl)-3-fluoro-5-formyl-4-hydroxybenzamide]
7.00 to 8.00	7.00 to 8.00	7.00 to 8.00	5.70 to 7.00	Nc1ncccc1-c1nc2ccc(-c3cccnc3)nc2n1-c1ccc2c(c1)CC[C@@H]2NC(=O)c1ccc(O)c(C=O)c1 [Example 23, N-[(1S)-5-[2-(2-aminopyridin-3-yl)-5-(pyridin-3-yl)imidazo[4,5-b]pyridin-3-yl]-2,3-dihydro-1H-inden-1-yl]-3-formyl-4-hydroxybenzamide]
